Laboratory results as given in US11484483B2, “Topical lotion having sanitizing properties” (Shear Kershman Laboratories, Inc, priority 2020, dated 2022).

Tested on: E. coli strain 25922
Assay: Efficacy Study of E. coli Strain 25922 (coupon touch transfer to TSA plate)
Type: cell-based
Conditions: 60 s contact time, Rep 1 and 2
Procedure: On a coupon, 0.05 mL of the inocula (E. coli strain 25922) was added to the center of each test coupon and left to dry. Using a sterile glove, 0.05 grams of the test lotion was mechanically rubbed onto the test coupon to mimic rubbing hand sanitizer onto the skin of hands. There was a contact time of either 60 seconds or 4 hours allowed to lapse prior to placing the coupon touch transfer to the trypticase soy agar (TSA) plate. The coupon was then placed onto the TSA plate and allowed contact for 15 seconds in 3 different locations. The plates were then incubated for 24 hours at 37° C.

[1] = 0.05 grams lotion on inoculated coupon, TNTC = Too Numerous to Count

CC(C)O [Control 17, isopropyl alcohol]
Placement 1/CFU [1]: 0 CFU
Placement 2/CFU [1]: 0 CFU
Placement 3/CFU [1]: 0 CFU
Log Reduction (Criteria ~5 Log Reduction in 60 sec.): 6 Log
